Test results: patent US7928139B2 (Amgen Inc., priority 2006, dated 2011)
pIC50: −log10 of the molar value.

Target: HIF PHD2 (Homo sapiens, UniProt Q9GZT9)
Assay: PHD2 inhibition assay (TR-FRET, VCB-Eu detection of hydroxylated P564-HIF1α peptide)
Type: biochemical
Details: 2 nM PHD2, 100 nM P564-HIF1α peptide, 0.25 μM 2-oxoglutarate, 100 μM FeCl2, 2 mM ascorbic acid
In short: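 Human PHD2 (2 nM final) preincubated 1 h at room temperature with compound and 100 μM FeCl2 in pH 6 MES buffer, 5% DMSO final. Reaction with 100 nM biotinylated P564-HIF1α peptide, 2 mM ascorbate and 0.25 μM 2-oxoglutarate for 1 h, stopped with succinate. Hydroxylation read by TR-FRET (VCB-Eu/streptavidin-APC, 655/615 nm); IC50 from 4-parameter fit of percent of control.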

Sequence of HIF PHD2 (Q9GZT9 whole entry): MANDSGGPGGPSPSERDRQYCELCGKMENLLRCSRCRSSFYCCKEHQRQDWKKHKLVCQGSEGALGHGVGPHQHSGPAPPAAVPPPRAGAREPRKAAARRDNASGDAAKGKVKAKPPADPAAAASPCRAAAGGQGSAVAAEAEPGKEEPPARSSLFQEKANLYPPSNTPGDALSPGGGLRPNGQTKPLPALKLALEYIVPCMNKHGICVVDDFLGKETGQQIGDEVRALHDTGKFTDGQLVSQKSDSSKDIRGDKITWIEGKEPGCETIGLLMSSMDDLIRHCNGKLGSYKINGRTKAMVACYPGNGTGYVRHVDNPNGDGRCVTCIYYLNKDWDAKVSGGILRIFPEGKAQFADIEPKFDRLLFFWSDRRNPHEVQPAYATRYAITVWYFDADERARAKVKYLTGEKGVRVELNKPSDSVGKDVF

Compound	pIC50
CC1(C#N)C(=O)C(C(=O)NCC(=O)O)=C(O)c2cc(F)ccc21 (centres unmarked) [Example 131, 2-(1-cyano-6-fluoro-4-hydroxy-1-methyl-2-oxo-1,2-dihydronaphthalene-3-carboxamido) acetic acid]	> 7.00
CC1(C#N)C(=O)C(C(=O)NCC(=O)O)=C(O)c2cc(F)c(F)cc21 (centres unmarked) [Example 133, 2-(1-cyano-6,7-difluoro-4-hydroxy-1-methyl-2-oxo-1,2-dihydronaphthalene-3-carboxamido) acetic acid]	> 7.00
(R)-2-(7-chloro-1- cyano-4-hydroxy-1- methyl-2-oxo-1,2- dihydronaphthalene- 3-carboxamido) acetic acid or (S)-2-(7-chloro-1- cyano-4-hydroxy-1- methyl-2-oxo-1,2- dihydronaphthalene- 3-carboxamido) acetic acid [Example 136]	> 7.00

Other lines, results leading:

pIC50	Compound
> 7.00	CC1(C#N)C(=O)C(C(=O)NCC(=O)O)=C(O)c2ccc(Br)cc21 (centres unmarked) [Example 132, 2-(7-bromo-1-cyano-4-hydroxy-1-methyl-2-oxo-1,2-dihydronaphthalene-3-carboxamido) acetic acid]
> 7.00	(R)-2-(7-bromo-1- cyano-4-hydroxy-1- methyl-2-oxo-1,2- dihydronaphthalene- 3-carboxamido) acetic acid or (S)-2-(7-bromo-1- cyano-4-hydroxy-1- methyl-2-oxo-1,2- dihydronaphthalene- 3-carboxamido) acetic acid [Example 134]
